Laboratory results from patent US20230404985A1, “METHODS OF TREATING TUMORS AND CANCERS HAVING DYSREGULATED WNT SIGNALING PATHWAYS” (ICAHN SCHOOL OF MEDICINE AT MOUNT SINAI, priority 2020, published 2023).

What was measured:
[1] = tested on: wild type (WT) healthy intestinal organoids; experiment: TiterGlo viability of wild type intestinal organoids; format: cell-based, mouse; conditions: 72 hours post treatment
Procedure: (§1) FIGS. 13A-13E show results pertaining to colorectal cancer. […] Data are column/gene normalized on a 0-100 scale with 0 being the lowest expression level and 100 the highest. FIG. 13D show full dose-response analysis of WNTinib's effects on the indicated organoid and tumoroid lines; viability was quantified using the TiterGlo assay after 72 hours. WT intestinal organoids are used as a control. […] Images of the intestine are shown as an example.
(§2) First, an APC deletion (A) was introduced, then a KRAS^G12D overexpression (AK) in combination with a SMAD4^KO was introduced to affect the TGFbeta pathway (AKS). Last, P53 was deleted to mimic the latest stages of metastatic disease progression (AKSP).

[2] = tested on: H3K27me3 at promoters of Wnt and pluripotency genes; experiment: ChIP-sequencing of H3K27me3 in MYC-CTNNB1 organoids; format: cell-based, mouse; conditions: WNTinib 1 μM, 24 hours
Source text: Importantly, this was not seen in the MYC-Tp53 model organoids (FIG. 10C).

[3] = tested on: receptor tyrosine kinases including KIT and VEGFR1/2; experiment: NanoBRET live cell target engagement, receptor tyrosine kinases; format: cell-based; conditions: relative to sorafenib and regorafenib
[4] = tested on: AKS: APCKO::KRASG12D::SMAD4KO tumoroids; experiment: TiterGlo viability of CRC tumoroids (AKS); format: cell-based, mouse
Procedure: as §1, §2

[5] = tested on: MYC-CTNNB1 tumor organoids; experiment: Drug toxicity (viability) assay in murine HCC tumor organoids; format: cell-based, mouse; conditions: screen in four tumor organoid models; 5 μM, viability after 3 days
Procedure: Liver tumors were minced and digested in sterile digestion media (PBS, 0.125 mg/mL collagenase from Clostridium histolyticum, 0.125 mg/mL dispase II, and 0.1 mg/mL DNaseI) for two hours at 37° C. Tumor dissociate was strained through a 70 μm strainer and washed with basal media (Advanced DMEM/F-12, 1% glutamine, 1% penicillin/streptomycin, 10 mM HEPES). Cells were counted, washed, resuspended at 50,000 cells per 50 μL Matrigel (Corning), and plated in 24 well plates. […]
For assays in organoid lines, 96 well plates were first coated with a 50:50 solution of basal media:Matrigel (35 μL/well), which polymerized for 15 minutes at 37° C. […] Viability was measured three days post drug administration with either luminescence from CellTiter-Glo or absorbance at 560 and 590 nm from resazurin. Viability data was analyzed by normalizing individual drug-treated well values to DMSO-treated wells. […]

Advanced-stage HCC = conditions: patients; cited from earlier work

| Compound | viability of WT organoids [1] | H3K27me3 at promoters of genes of Wnt and pluripotency pathways [2] | live cell target engagement IC50 on receptor tyrosine kinases [3] | viability of AKS CRC line ([4]; 72 hours post treatment) | organoid morphology of AKS organoids ([4]; WNTinib 3 μM, 72 hrs) | activity in tumor organoid screen [5] | median survival (Advanced-stage HCC) |
| --- | --- | --- | --- | --- | --- | --- | --- |
| CNC(=O)c1cc(Oc2ccc(NC(=O)Nc3ccc(C(F)(F)C(F)(F)F)cc3)c(F)c2)ccn1 [WNTinib, 4-(3-fluoro-4-(3-(4-(perfluoroethyl)phenyl)ureido)phenoxy)-N-methylpicolinamide] | without affecting that of WT organoids | upregulated the tri-methylation of lysine 27 on histone H3 (H3K27me3) | retained a similar in vivo IC50 | reduce the viability | induce a reversal of organoid morphology | potent and selective activity |  |
| CNC(=O)c1cc(Oc2ccc(NC(=O)Nc3ccc(Cl)c(C(F)(F)F)c3)cc2)ccn1 [sorafenib, reference compound] |  |  |  |  |  |  | 11-14 months |
